Experimental data: patent publication US20250312469A1 (CANGET BIOTEKPHARMA, priority 2024, published 2025)
“And” between values parts separate entries of the source, which are not always exact repeats. Identical values can stand only once.

Tests used:
DDX5 = DDX5 (Homo sapiens, UniProt P17844); test: FL118 affinity column purification and mass spectrometry; format: binding; conditions: SW620 protein lysates
Description: The process includes many experimental steps as described below.
Affinity purification column setup: (i) transfer the control resin slurry and the FL118-coupled resin slurry into two columns, respectively; (ii) allow resin to settle and then open the bottom cap to allow the solution to flow out to drain all the reaction solution; (iii) washing the column with 2 ml CB, and then with 2 ml ultrapure water/DMSO solution (75:25). […] Then additional 3×4 ml tris washing buffer (0.1 M Tris, pH 8.0).
After extensive washing with washing buffer, the proteins binding on the column were eluted with 8M urea buffers.
After digestion, the tryptic products were extracted twice and dried; the dried peptides were then reconstituted in 10 μL of 2% (v/v) formic acid for analysis with Liquid Chromatography Tandem Mass Spectrometry (LC-ESI-MS/MS). LC-ESI-MS/MS analysis of peptides was performed using a nano-ACQUITY UPLC system (Waters Corporation, Milford, MA) coupled through a nano-spray ionization source to a Quadrupole-Time-of-Flight (Q-ToF) Premier mass spectrometer (Micromass, Waters Corporation). […] The criteria used to identify the proteins included ion scores equal to or greater than the threshold significant ion score ([…]), and similarity between the observed protein molecular mass from gel electrophoresis and the calculated molecular mass provided in the database. […]

[1] = system: Agrin and its downstream targets; test: Western blots of Agrin and downstream targets in pancreatic cancer cell lines; format: cell-based, human
Description: For frozen prostate cancer tissue specimens and their adjacent non-tumor tissues (if any) obtained from Roswell Park pathology network, 30-50 mg of each tissue in a 1.5 Eppendorf tube containing 500 μL of 2×SDS lysis buffer containing Tris pH 6.8+4% SDS+10% Glycerol were homogenized through ultrasound treatment for 10-15 second per time with 3-6 times until tumor tissue was lysed. After all tissues were processed, 1.5 mL tubes were centrifuged at 13,000 rom in a microcentrifuge for 1-2 min and then the supernatant in each tube was transferred into a new 1.5 mL tube for protein concentration measurement (refer to the section of “Studies with Human patient tumor specimens” for more information). Twenty to fifty μg total protein from each sample (cell lysis or tumor tissue lysis) were heated at 95° C. for 5 minutes after mixing with equal volumes of 2× SDS loading buffer. […] The membrane was then blocked in 5% skim milk in TBS-T buffer (20 mM Tris/HCl pH 7.5, 0.137 M NaCl, and 0.1% Tween 20) at room temperature for 2-3h. […] Proteins of interest were detected using Western Lightning ECL-Plus (Perkin Elmer, Waltham, MA) and visualized by various times (3-120 seconds) of exposure. Actin, tubulin and/or GAPDH were detected as the internal control to normalize total protein loading for each sample.

[2] = format: physicochemical; conditions: solid state of powder
Description: Laboratory XRPD patterns from the samples will be collected at 25° C. The diffraction data were collected over the angular range of 2θ=3°−40° with a step size of 2θ=0.02° and accounting time of 0.12 s/step.

WP2-uvrA = test: Ames Bacterial Reverse Mutation Assay; conditions: for Background Lawn Code / Colony Counts Average / Colony Counts Replicate 1-3: WP2-uvrA
Description: The Ames Bacterial Reverse Mutation (AB™) used five bacterial tester strains (TA97a, TA98, TA100, TA1535, WP2-uvrA).
Tester strains were added to flasks containing nutrient broth and incubated at 37+2° C. overnight. The flasks were removed from the overnight incubation and the final concentration was determined (the OD was measured and determined whether growth was suitable for testing). Top agar was melted, and 2.0 mL was dispensed into heated culture tubes. The S9 mix (metabolic activation) was prepared and stored on ice. […] Each culture tube was vortexed and immediately poured onto the labeled minimal glucose agar plates. All plates were inverted and placed into a 37±1° C. incubator for 48-72 hours. The plates were counted via an automated colony counter or by hand and the background lawn was microscopically evaluated for any signs of toxicity. Genotypic control plates were prepared for each tester strain and incubated for 24-72 hours at 37±1° C.

DDX5, sequence (P17844 whole entry): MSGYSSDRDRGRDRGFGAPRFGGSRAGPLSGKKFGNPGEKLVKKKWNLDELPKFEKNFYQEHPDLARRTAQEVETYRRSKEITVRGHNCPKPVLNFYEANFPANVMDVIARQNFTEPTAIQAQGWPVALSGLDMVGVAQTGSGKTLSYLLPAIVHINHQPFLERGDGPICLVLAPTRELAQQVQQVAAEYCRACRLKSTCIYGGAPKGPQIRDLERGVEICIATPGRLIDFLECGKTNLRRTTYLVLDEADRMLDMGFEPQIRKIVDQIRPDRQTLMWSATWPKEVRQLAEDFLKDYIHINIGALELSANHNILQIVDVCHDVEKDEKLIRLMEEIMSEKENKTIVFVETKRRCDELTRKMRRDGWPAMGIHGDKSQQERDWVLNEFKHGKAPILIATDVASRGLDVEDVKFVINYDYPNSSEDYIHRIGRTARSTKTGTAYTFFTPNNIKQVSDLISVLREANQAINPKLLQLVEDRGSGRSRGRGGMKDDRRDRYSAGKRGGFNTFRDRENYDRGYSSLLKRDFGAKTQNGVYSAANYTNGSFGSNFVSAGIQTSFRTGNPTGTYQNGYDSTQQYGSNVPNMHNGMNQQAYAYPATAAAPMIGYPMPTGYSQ

In the case of `CCC1(O)C(=O)OCc2c1cc1n(c2=O)Cc2cc3cc4c(cc3nc2-1)OCO4` (stereo not drawn) [FL118], the “binding to DDX5 (affinity purification, MS)” value (DDX5) is reported as “physically binds”, the “DDX5, Agrin, YAP1, Integrin expression and FAK phosphorylation” value ([1]; Mia Paca-2, Panc-1, BxPC-3, 10, 100, 500 nM) is reported as “inhibits the expression of DDX5, Agrin, YAP1 and Integrin as well as the FAK phosphorylation status” and the “Agrin and YAP1 proteins” value ([1]; Panc-1 cells) is reported as “inhibits Agrin and YAP1 proteins”. For the same compound, the XRPD [2] was “Weak crystal”, the bacterial strain mutation (WP2-uvrA) was “does not induce” and the “mean revertant colonies over negative control” value (WP2-uvrA; +/− S9) was “less than 2 fold”. For the same compound, the “Background Lawn Code” value (WP2-uvrA; 0.010 μM +S9) was 1, the “Colony Counts Average” value (WP2-uvrA; 0.010 μM +S9) was 40 and the “Colony Counts Replicate 1-3” value (WP2-uvrA; 0.010 μM +S9) was 38 and 47 and 34. For the same compound, the “Background Lawn Code” value (WP2-uvrA; 0.010 μM −S9) was 1, the “Colony Counts Average” value (WP2-uvrA; 0.010 μM −S9) was 29 and the “Colony Counts Replicate 1-3” value (WP2-uvrA; 0.010 μM −S9) was 35 and 22 and 31. The “Background Lawn Code” value (WP2-uvrA; 0.10 μM +S9) was 1, the “Colony Counts Average” value (WP2-uvrA; 0.10 μM +S9) was 47 and the “Colony Counts Replicate 1-3” value (WP2-uvrA; 0.10 μM +S9) was 48 and 38 and 54. The “Background Lawn Code” value (WP2-uvrA; 0.10 μM −S9) was 1, the “Colony Counts Average” value (WP2-uvrA; 0.10 μM −S9) was 30 and the “Colony Counts Replicate 1-3” value (WP2-uvrA; 0.10 μM −S9) was 27 (2×) and 36. For the same compound, the “Background Lawn Code” value (WP2-uvrA; 1.0 μM +S9) was 1, the “Colony Counts Average” value (WP2-uvrA; 1.0 μM +S9) was 39 and the “Colony Counts Replicate 1-3” value (WP2-uvrA; 1.0 μM +S9) was 35 and 38 and 43. For the same compound, the “Background Lawn Code” value (WP2-uvrA; 1.0 μM −S9) was 1, the “Colony Counts Average” value (WP2-uvrA; 1.0 μM −S9) was 27 and the “Colony Counts Replicate 1-3” value (WP2-uvrA; 1.0 μM −S9) was 27 and 31 and 24.
